Source: article PMC8968063, “Key features of inhibitor binding to the human mitochondrial pyruvate carrier hetero-dimer” (Molecular Metabolism, 2022)
Values joined by “and” are separate entries in the source; they are usually repeats but may differ in a detail not shown here. Equal entries are not always repeated.

Legend:
human MPC1L/MPC2 complex [1] = target: T1, human MPC1L/MPC2 complex (Homo sapiens, UniProt O95563+P0DKB6); test: CPM thermostability shift assay, purified MPC1L/MPC2; type: binding; settings: for ΔTm at 100 µM / Tm, CPM assay / ∆Tm, CPM assay (thermal shift compared to no-ligand control): inhibitor 100 μM; for ΔTm at 100 µM: read-out: ∆Tm, CPM assay (thermal shift compared to no-ligand control); for Tm, CPM assay: unliganded 51.3 ± 0.2, mean ± s.d., 3 biological repeats
T1 construct: eight-histidine tag (C, cleaved yes); TEV protease cleavage site (part stays on MPC2 after digestion) (C, cleaved yes); made in house; host or cells: Saccharomyces cerevisiae SHY15 (mpc triple deletion strain), purified from mitochondria
T1 sequence (P0DKB6 2-136): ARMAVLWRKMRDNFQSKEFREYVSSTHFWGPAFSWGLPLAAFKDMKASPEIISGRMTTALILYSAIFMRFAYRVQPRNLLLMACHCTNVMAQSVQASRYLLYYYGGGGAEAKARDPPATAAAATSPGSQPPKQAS
T1 sequence (O95563 2-127): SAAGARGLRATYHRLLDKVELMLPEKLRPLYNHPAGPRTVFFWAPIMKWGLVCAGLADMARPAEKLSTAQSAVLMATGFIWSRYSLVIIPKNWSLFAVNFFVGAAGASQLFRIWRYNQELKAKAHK
Experimental: The assessment of ligand binding was performed via shifts in protein thermostability upon binding using thermal denaturation on a rotary quantitative PCR (qPCR) instrument (Qiagen Rotor-Gene Q 2plex HRM, Venlo, Netherlands), as previously described. In this method, cysteine residues, buried within the protein structure, become solvent-exposed during denaturation in a temperature ramp and then react with 7-diethylamino-3-(4-maleimidophenyl)-4-methylcoumarin (CPM) to form fluorescent-adducts. Briefly, a CPM working solution was prepared by diluting the CPM stock (5 mg/mL in dimethyl sulfoxide) 50-fold into assay buffer (20 mM Tris–HCl, pH 7.4, 150 mM NaCl, 0.1% (w/v) LMNG, 0.1 mg/mL TOCL) and incubated for 10 min at room temperature. In each analysis, performed in duplicates or triplicates, 3 μg of purified MPC was diluted into 45 μL of assay buffer containing the desired concentration of the inhibitor then incubated for 10 min on ice. Next, 5 μL of the CPM working solution were added. Samples were incubated on ice for an additional 10 min then subjected to a temperature ramp of 5.6 °C/min. The fluorescence increase was monitored with the HRM channel of the instrument (excitation at 440–480 nm, emission at 505–515 nm). Unfolding profiles were analysed with the Rotor-Gene Q software 2.3, and the peaks of their derivatives were used to determine the apparent melting temperature.

[2] = target: T2, human MPC1L/MPC2 hetero-dimer (Homo sapiens, UniProt O95563+P0DKB6); test: Inhibition of [14C]-pyruvate homo-exchange in MPC1L/MPC2 proteoliposomes; type: biochemical; settings: for IC50: MPC1L/MPC2 proteoliposomes, 50 μM [14C]-pyruvate homo-exchange, mean ± s.d., read-out: IC50 of pyruvate transport inhibition
T2 construct: eight-histidine tag (C, cleaved yes); TEV protease cleavage site (part stays on MPC2 after digestion) (C, cleaved yes); made in house; host or cells: Saccharomyces cerevisiae SHY15 (mpc triple deletion strain), purified from mitochondria
T2 sequence (P0DKB6 2-136): T1 sequence (P0DKB6 2-136)
T2 sequence (O95563 2-127): T1 sequence (O95563 2-127)
Experimental: Egg L-α-phosphatidylcholine 99% (w/v) (Avanti Polar Lipids, AL, USA) and TOCL were mixed in a 20:1 (w/w) ratio, dried under a stream of nitrogen and washed once with methanol before being dried again. Lipids were hydrated in 20 mM Tris–HCl, pH 8.0, 50 mM NaCl to a concentration of 12 mg/mL. Unlabeled pyruvate was added as a freshly made concentrated stock at a final concentration of 5 mM for internalisation. Lipids were solubilised with 1.2% (v/v) pentaethylene glycol monodecyl ether (Sigma) and freshly purified protein was added at a lipid-to-protein ratio of 250:1 (w/w). Samples were incubated on ice for 5 min, then liposomes were formed by the step-wise removal of pentaethylene glycol monodecyl ether by five additions at 20 min intervals of 60 mg Bio-Beads SM-2 (Bio-Rad, Watford, UK) with gentle mixing at 4 °C. A final addition of 480 mg Bio-Beads was incubated with the samples overnight. Proteoliposomes were first separated from the Bio-Beads by passage through empty spin columns (Bio-Rad, Watford, UK) and subsequently pelleted at 120,000×g for 60 min. The proteoliposomes were resuspended with a thin needle in 150 μL of their supernatant after the rest of the supernatant was removed.
The time course of pyruvate homo-exchange was measured at room temperature. The transport was initiated by diluting proteoliposomes 200-fold into external buffer, 20 mM MES, pH 6.4, 50 mM NaCl, containing 50 μM [^14C]-pyruvate (500,000 dpm, Perkin Elmer, MA, USA). The reaction (0–30 s) was terminated by rapid dilution into 8 volumes of ice-cold internal buffer (20 mM Tris–HCl, pH 8.0, 50 mM NaCl), followed by rapid filtration through cellulose nitrate 0.45 μm filters (Millipore, Gillingham, UK) and washing with an additional 8 volumes of buffer. The filters were dissolved in Ultima Gold scintillation liquid (Perkin Elmer, MA, USA) and the radioactivity was counted with a Perkin Elmer Tri-Carb 2800 RT liquid scintillation counter. […] The data analysis was performed with non-linear regression fittings using GraphPad Prism 7.0d ([Inhibitor] vs response, variable slope). The specific uptake rates were calculated based on the amount of protein used in reconstitutions, as estimated from bicinchoninic acid assay. The biological repeats represent independent proteoliposome preparations using protein from independent purifications.

human MPC1L/MPC2 complex [3] = target: T1, human MPC1L/MPC2 complex; test: nano-DSF thermostability shift assay, purified MPC1L/MPC2; type: binding; settings: inhibitor 100 μM; for Tm, nano-DSF: unliganded 51.9 ± 0.1, mean ± s.d., 2 biological repeats
Experimental: Ligand binding was also assessed using dye-free nano differential scanning fluorimetry (nano-DSF) to monitor fluorescence changes due to altered environments of tryptophan and tyrosine residues during unfolding. Protein samples in buffer containing 20 mM Tris–HCl pH 7.4, 150 mM NaCl, 0.1% (w/v) LMNG, 0.1 mg/mL TOCL, in the presence or absence of the indicated concentrations of small molecule inhibitors, were loaded into capillary tubes, and a temperature ramp of 5 °C/min was applied. The intrinsic fluorescence was measured using the NanoTemper Prometheus NT.48 (NanoTemper, München, Germany).

[4] = target: T3, recombinant human MPC1L/MPC2 (Homo sapiens, UniProt O95563+P0DKB6); test: Electrospray mass spectrometry of MPC1L/MPC2 after reaction with inhibitors or sulfhydryl modifiers; settings: for Covalent modification of MPC protomers (molecular mass change): folded MPC1L/MPC2 incubated with compound, ESI-MS; for Modifications, MPC1L (2–136) / Modifications, MPC1L (5–136) / Modifications, MPC2 (2–137): number of covalent adducts from mass increase
T3 construct: MPC1L (2–136); MPC2 (2–137); eight-histidine tag (C, cleaved yes); TEV protease cleavage site (part stays on MPC2 after digestion) (C, cleaved yes); made in house; host or cells: Saccharomyces cerevisiae SHY15 (mpc triple deletion strain), purified from mitochondria
T3 sequence (P0DKB6 2-136 limits assumed): T1 sequence (P0DKB6 2-136)
T3 sequence (O95563 2-127 limits assumed): T1 sequence (O95563 2-127)
Experimental: Different MPC inhibitors (Table1) or sulfhydryl reagents were first incubated with MPC1L/MPC2 in a folded state, then the protein molecular masses were measured by electrospray mass spectrometry. The MPC subunits (10 μg) were resolved by reverse-phase HPLC on a PLRP-S column (1.0 mm i.d. X 75 mm; VARIAN) using a gradient of 2-propanol in a solvent system compatible with the recovery of membrane proteins (Carroll et al., 2009). The eluate (50 μL/min) was introduced into a QTRAP4000 (SCIEX) mass spectrometer operating in positive ion single MS mode. The instrument was scanned from 700 m/z to 2300 m/z after calibration with ions from a mixture of 1.0 μM of myoglobin and 1.5 μM trypsinogen. Molecular masses were obtained by reconstruction of the spectra of multiply charged ions using PeakView (SCIEX).

mammalian MPCs = settings: cited from earlier work
[5] = MPC1L/MPC2 after reaction with compound

Row | SMILES | ΔTm at 100 µM (human MPC1L/MPC2 complex [1]) [°C] | Tm, CPM assay (human MPC1L/MPC2 complex [1]) [°C] | ∆Tm, nano-DSF (human MPC1L/MPC2 complex [3]) [°C] | Tm, nano-DSF (human MPC1L/MPC2 complex [3]) [°C] | also measured
1 | C=CCN1C(=O)NC(=O)/C(=C/c2ccc(-c3ccccc3[N+](=O)[O-])o2)C1=O [Compound 13] | 7.4 ± 1.9 | 58.7 ± 1.7 | – | – | –
2 | CCN(CC)C(=O)/C(C#N)=C/c1cc(O)c(O)c([N+](=O)[O-])c1 [Entacapone, (2E)-2-cyano-3-(3,4-dihydroxy-5-nitrophenyl)-N,N-diethylprop-2-enamide] | – | – | 6.3 ± 1.1 | 58.2 ± 1.0 | IC50 [2]: 630 ± 53 nM
3 | CS(=O)(=O)SCCN [MTSEA] | – | – | – | – | Mass difference (observed vs calculated), MPC1L (2–136) [4, 5]: +149.3 Da; Mass difference (observed vs calculated), MPC1L (5–136) [4, 5]: +149.2 Da; Covalent modification of MPC protomers (molecular mass change) [4]: modified covalently; Modifications, MPC1L (2–136) [4]: 2 x MTSEA; Modifications, MPC1L (5–136) [4]: 2 x MTSEA; Modifications, MPC2 (2–137) [4]: 1 x MTSEA
4 | CCc1ccc(C(=O)COc2ccc(CC3SC(=O)NC3=O)cc2)nc1 (stereo not shown) [Mitoglitazone, mitoglitazone] | 5.4 ± 0.8 | 56.7 ± 0.6 | 1.9 ± 0.5 | 53.8 ± 0.4 | –
5 | CCN1C(=O)C=CC1=O [NEM] | – | – | – | – | Covalent modification of MPC protomers (molecular mass change) [4]: modified covalently; Modifications, MPC1L (2–136) [4]: 2 x NEM and 1 x NEM; Modifications, MPC1L (5–136) [4]: unmodified and 1 x NEM and 2 x NEM and 3 x NEM; Modifications, MPC2 (2–137) [4]: 2 x NEM and 1 x NEM and 3 x NEM
6 | O=C1CN(/N=C/c2ccc([N+](=O)[O-])o2)C(=O)N1 [Nitrofurantoin, (E)-1-[(5-nitro-2-furyl)methylideneamino]imidazolidine-2,4-dione] | – | – | – | – | IC50 [2]: 3300 ± 2600 nM
7 | CCc1ccc(CCOc2ccc(CC3SC(=O)NC3=O)cc2)nc1 (stereo not shown) [Pioglitazone, pioglitazone] | 5.1 ± 0.9 | 56.4 ± 0.7 | 1.1 ± 0.3 | 53.0 ± 0.2 | –
8 | CN(CCOc1ccc(CC2SC(=O)NC2=O)cc1)c1ccccn1 (stereo not shown) [Rosiglitazone, rosiglitazone] | 5.3 ± 0.5 | 56.6 ± 0.3 | – | – | –
9 | COc1cc(C2Oc3cc([C@H]4Oc5cc(O)cc(O)c5C(=O)[C@@H]4O)ccc3OC2CO)ccc1O (stereo partly shown) [Silibinin] | 0.1 ± 0.6 | 51.4 ± 0.4 | 0.2 ± 0.3 | 52.1 ± 0.2 | Thermal shift in the CPM assay (human MPC1L/MPC2 complex [1]; compound 1 mM): positive thermal shift; ∆Tm, CPM assay (thermal shift compared to no-ligand control) (human MPC1L/MPC2 complex [1]): No thermal shifts; ∆Tm, nano-DSF (human MPC1L/MPC2 complex [3]; listed as silibinin): No thermal shifts
10 | CCCC(CCC)C(=O)O [Valproic acid, valproic acid] | 0 | 51.3 ± 0.3 | -0.1 ± 0.3 | 51.8 ± 0.2 | ∆Tm, CPM assay (thermal shift compared to no-ligand control) (human MPC1L/MPC2 complex [1]): no effect at all; Effect on pyruvate transport ([2]; 1 mM final concentration): minimal
11 | O=C(O)C(F)=Cc1ccccc1 [α-fluorocinnamate] | – | – | – | – | Potency relative to α-cyano-cinnamate (times less potent) (mammalian MPCs): 1,000 times
